Laboratory results: PMC11538636, “Electro‐Driven Multi‐Enzymatic Cascade Conversion of CO2 to Ethylene Glycol in Nano‐Reactor” (Advanced Science, 2024)

Assays:
BmFADH = molecular target: T1, BmFADH (Burkholderia multivorans, UniProt A0A0H3KP42); assay: NADH consumption at […] nm; assay type: biochemical; conditions: 1 mM NADH, 5 mM NaMeO2, 50 mM phosphate pH 7.5, 2 h
T1 construct: gene fdhA2; recombinant in E. coli BL21(DE3), pETDuet, C-terminal His-tag; Zn2+ dependent
T1 sequence (A0A0H3KP42 1-398): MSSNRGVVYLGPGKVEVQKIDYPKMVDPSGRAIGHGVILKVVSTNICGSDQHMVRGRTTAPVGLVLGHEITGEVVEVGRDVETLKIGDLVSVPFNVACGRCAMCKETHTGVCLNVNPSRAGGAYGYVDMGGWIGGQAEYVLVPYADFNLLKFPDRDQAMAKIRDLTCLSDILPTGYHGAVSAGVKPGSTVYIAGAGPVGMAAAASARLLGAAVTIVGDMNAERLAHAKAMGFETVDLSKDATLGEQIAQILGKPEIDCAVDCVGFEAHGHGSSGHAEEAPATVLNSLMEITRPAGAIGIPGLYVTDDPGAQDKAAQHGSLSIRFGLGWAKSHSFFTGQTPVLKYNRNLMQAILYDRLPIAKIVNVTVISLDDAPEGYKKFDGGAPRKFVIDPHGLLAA

GoADH = tested on: T2, GoADH; assay: steady-state kinetics, Michaelis-Menten fit; assay type: biochemical, Gluconobacter oxydans; conditions: NADH co-substrate; free enzyme; glycolaldehyde reduction
T2 construct: gene adh; recombinant in E. coli BL21(DE3), pETDuet, C-terminal His-tag; codon-optimized gene; Zn2+ dependent

| Km (GoADH) [µM] | SMILES | NADH consumption at 340 nm (BmFADH) |
| --- | --- | --- |
| – | NC(=O)C1=CN([C@@H]2O[C@H](COP(=O)(O)OP(=O)(O)OC[C@H]3O[C@@H](n4cnc5c(N)ncnc54)[C@H](O)[C@@H]3O)[C@@H](O)[C@H]2O)C=CC1 [NADH] | activity of PaFDH, BmFADH, and GoADH was determined by measuring the consumed NADH |
| 432 | O=CCO [glycolaldehyde] | – |
